The subject of this experiment is ATF6. Kind of experiment: ERSE ATF6-luciferase reporter assay (thapsigargin-induced ER stress). The class given is cell-based, human. The following applies: Homo sapiens, U2OS, thapsigargin-induced ER stress, U2-OS ATF6 luc reporter cells; for inhibition at 1 µM: 1 μM test compound, 8 hr, read-out: Inh. ATF6-Luc @ 1 μM [%]; for IC50: dose-response 30 μM to 1 nM, read-out: IC50 ATF6-Luc reporter. On the procedure: Human bone osteosarcoma (U2-OS) cells were obtained from the American Type Culture Collection (ATCC HTB-96, ATCC Manassas, VA) and were cultured with growing medium containing Dulbecco's Modified Eagle's Medium (DMEM) (Cat. No.:SH30023.02, HyClone) supplemented with fetal bovine serum (FBS) 10% (Cat. No.: 16000044, Gibco) and 1% penicillin-streptomycin antibiotic cocktail (Cat. No.: SV30010, Hyclone).
Cignal Lenti ATF6 luc reporter (Qiagen #CLS-6031L) was used to produce a stable cell line in U2-OS cells. […] The number of response elements as well as the intervening sequence between response elements has been experimentally optimized to maximize the signal to noise ratio.
Compounds were prepared as 10 mM stock solutions and stored at −80° C.
U2-OS ATF6 luc reporter cells were thawed 3-4 days and split once prior to assays. […] At the day of experiment, cells were pre-treated for 30 min with 50 μL growing medium containing either vehicle (dimethyl sulfoxide (DMSO)) (Cat. No.: D2650, Sigma-Aldrich) or 1 μM test compound. After the pre-incubation time, 50 μL of a solution containing 0.2 μM thapsigargin (Tg)(an ER stress inducer) was added to respective wells. This Tg solution also contained vehicle or test compounds at 1 μM. The final concentration of DMSO in each well was kept at 0.3%. Plates were incubated for 8 hr in humidified chambers.
Finally, after 8 hr, plates were cooled to room temperature for 10 min prior to luciferase assays. Luciferase reactions were performed using Luciferase Assay System (Cat. No.: E4550, Promega). Briefly, each well was washed with 100 μl of PBS1X and then 20 μl of lysis reagent were added into each well. Plates were shaken for 10 min, then 50 μl of Luciferase Assay Reagent were added to each well and luminescence was read with an integration time of 1 s and a gain of 110 in a Synergy 4 Microplate reader.
For the assessment of the half-maximal inhibitory concentration (IC50) for selected compounds, dose-response assays were performed. Compounds were serially diluted using DMSO starting at 30 μM until 1 nM. The assays were run as described above.

Structures are written as SMILES. Like-named read-outs stand apart in the source and are kept apart here. Where only a bound is given, the exact number is not on record here.

Regarding `CC(c1ccc(C(F)(F)F)cc1C(F)(F)F)n1cc(NC(=O)c2cnc(-c3ccco3)s2)cn1` (stereo not shown) [Compound 80, N-(1-(1-(2,4-bis(trifluoromethyl)phenyl)ethyl)-1H-pyrazol-4-yl)-2-(furan-2-yl)thiazole-5-carboxamide], the IC50 is greater than 10 µM. For the setting “8 h”, the inhibition at 1 µM is less than 25%.

As to `O=C(Nc1cnn(Cc2ccc(C(F)(F)F)cc2C(F)(F)F)c1)c1nnc(-c2ccccn2)o1` [Compound 151, N-(1-(2,4-bis(trifluoromethyl)benzyl)-1H-pyrazol-4-yl)-5-(pyridin-2-yl)-1,3,4-oxadiazole-2-carboxamide], the IC50 is greater than 10 µM. In addition, the inhibition at 1 µM (8 h) was less than 25%.

As to `CC(c1ccc(C(F)(F)F)cc1C(F)(F)F)n1cc(NC(=O)/C=C/c2ccccn2)cn1` (stereo not shown) [Compound 83, (E)—N-(1-(1-(2,4-bis(trifluoromethyl)phenyl)ethyl)-1H-pyrazol-4-yl)-3-(pyridin-2-yl)acrylamide], the IC50 was greater than 10 µM. Also, the inhibition at 1 µM (8 h) is less than 25%.

As for `O=C(Nc1cnn(Cc2c(Cl)cccc2Cl)c1)c1nnc(-c2ccco2)s1` [Compound 148, N-(1-(2,6-dichlorobenzyl)-1H-pyrazol-4-yl)-5-(furan-2-yl)-1,3,4-thiadiazole-2-carboxamide], the IC50 is greater than 10 µM. Besides, the inhibition at 1 µM (8 h) is less than 25%.

`Cc1c(NC(=O)c2cc(-c3ccccn3)on2)cnn1Cc1ccc(C(F)(F)F)cc1C(F)(F)F` [Compound 30, N-(1-(2,4-bis(trifluoromethyl)benzyl)-5-methyl-1H-pyrazol-4-yl)-5-(pyridin-2-yl)isoxazole-3-carboxamide]: the IC50 was 1 to 10 µM. Moreover, the inhibition at 1 µM (8 h) lay within 25 to 50%.

Consider `COc1ccccc1-c1cc(C(=O)Nc2cnn([C@@H](C)c3ccc(C(F)(F)F)cc3C(F)(F)F)c2)no1` [Compound 89, (S)N-(1-(1-(2,4-bis(trifluoromethyl)phenyl)ethyl)-1H-pyrazol-4-yl)-5-(2-methoxyphenyl)isoxazole-3-carboxamide], for which the IC50 is greater than 10 µM. Moreover, for the setting “8 h”, the inhibition at 1 µM was less than 25%.

As for `O=C(Nc1cnn(Cc2c(Cl)cccc2Cl)c1)c1nnc(-c2ccccn2)s1` [Compound 145, N-(1-(2,6-dichlorobenzyl)-1H-pyrazol-4-yl)-5-(pyridin-2-yl)-1,3,4-thiadiazole-2-carboxamide], the IC50 was greater than 10 µM. Further, the inhibition at 1 µM (8 h) was less than 25%.

As for `C[C@@H](c1ccc(C(F)(F)F)cc1C(F)(F)F)n1cc(NC(=O)c2nnc(-c3ccncn3)s2)cn1` [Compound 157, (S)—N-(1-(1-(2,4-bis(trifluoromethyl)phenyl)ethyl)-1H-pyrazol-4-yl)-5-(pyrimidin-4-yl)-1,3,4-thiadiazole-2-carboxamide], the IC50 was greater than 10 µM. For the same compound, the inhibition at 1 µM (8 h) was less than 25%.

As to `C[C@H](c1ccc(C(F)(F)F)cc1C(F)(F)F)n1cc(NC(=O)c2nnc(-c3ccccn3)o2)cn1` [Compound 133, (R)—N-(1-(1-(2,4-bis(trifluoromethyl)phenyl)ethyl)-1H-pyrazol-4-yl)-5-(pyridin-2-yl)-1,3,4-oxadiazole-2-carboxamide], the IC50 was greater than 10 µM. The inhibition at 1 µM (8 h) was less than 25%.

For the compound `C[C@@H](c1ccc(C(F)(F)F)cc1C(F)(F)F)n1cc(NC(=O)c2cnccn2)cn1` [Compound 141, (S)—N-(1-(1-(2,4-bis(trifluoromethyl)phenyl)ethyl)-1H-pyrazol-4-yl)pyrazine-2-carboxamide], the IC50 was greater than 10 µM. Also, the inhibition at 1 µM (8 h) is less than 25%.

Regarding `CC(c1ccc(C(F)(F)F)cc1C(F)(F)F)n1cc(NC(=O)c2ccc(-c3ccccn3)cn2)cn1` (stereo not shown) [Compound 82, N-(1-(1-(2,4-bis(trifluoromethyl)phenyl)ethyl)-1H-pyrazol-4-yl)-[2,3′-bipyridine]-6′-carboxamide], the IC50 was greater than 10 µM and the inhibition at 1 µM was less than 25%.

By IC50 is commonly meant the point on the concentration scale where inhibition reaches its midpoint.

Values taken from patent publication US20240124434A1, “ATF6 INHIBITORS AND USES THEREOF” (Altos Labs, Inc., priority 2018, published 2024).
